Among the test systems are SNB-78; XF498; DMS-114; DLD-1; HOP-18; M19-MEL; DMS-273; KM-20L2; RXF 631.
Holding throughout (experiment): DTP human tumour cell line panel, 48 h

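A five-concentration, 48-hour dose response in 96-well plates underlies each endpoint, interpolated linearly between surrounding concentrations. At the GI50, growth is halved.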 Calls of active or inactive are those of the source. Rule as the data show it: active = GI50 up to about 1.1 µM and inactive = higher. Bounds are passed on as bounds.

The GI50 is the concentration giving 50% growth inhibition. On to `N=C(NC(=S)N1CCCCC1)N1CCCCC1`, for which the GI50 with SNB-78, with XF498, in the experiment with DMS-114, in the experiment on DLD-1, in the experiment on HOP-18 and in the experiment on M19-MEL was > 100 µM (inactive) each time. Further, the GI50 in the experiment on DMS-273 and in the experiment with KM-20L2 was > 100 µM (inactive) throughout.
`O=[N+]([O-])c1ccccc1[S+]([O-])c1ccccc1` (stereo not drawn): the GI50 was 56.9 µM (inactive) with SNB-78; > 100 µM (inactive) in the experiment on XF498; 22.1 µM (inactive) in the experiment on DMS-114; 71 µM (inactive) in the experiment on DLD-1; 21.3 µM (inactive) in the experiment with M19-MEL; 47.2 µM (inactive) in the experiment on DMS-273.
With `CCCCSN1C(=O)c2ccccc2C1=S`, the GI50 in the experiment on SNB-78 was 49.3 µM (inactive); in the experiment with XF498 it was > 100 µM (inactive); with DMS-114, 45.5 µM (inactive); with DLD-1, 44.8 µM (inactive); in the experiment with RXF 631, > 100 µM (inactive); in the experiment on M19-MEL, 56.2 µM (inactive). Further, in the experiment with DMS-273, the GI50 is 45.3 µM (inactive).
Turning to `CC1(C)O[C@H]2[C@H](O)C[C@](O)(CO)C[C@H]2O1`, the GI50 in the experiment on SNB-78, in the experiment with DMS-114, in the experiment on DLD-1, in the experiment on RXF 631, with M19-MEL and with DMS-273 was > 100 µM (inactive) throughout. The GI50 in the experiment with KM-20L2 is > 100 µM (inactive).
On to `CC1(C)C(c2ccccc2)C12CCC1(C2=O)C(c2ccccc2)C1(C)C` (stereo not drawn), for which the GI50 in the experiment on SNB-78 was 24.6 µM (inactive); with XF498, 18.7 µM (inactive); with DMS-114 it was 17.9 µM (inactive); with M19-MEL, 24.6 µM (inactive); with DMS-273, 22.1 µM (inactive); in the experiment with KM-20L2, 20.3 µM (inactive).
Consider `ON=C1CCC(c2ccccc2)CC1` (stereo not drawn), for which the GI50 in the experiment with SNB-78, in the experiment with XF498, in the experiment on DMS-114, in the experiment on DLD-1, with HOP-18 and in the experiment with M19-MEL was > 100 µM (inactive) in each case. Further, the GI50 in the experiment with DMS-273 and in the experiment on KM-20L2 was > 100 µM (inactive) each time.
For `C=CCOCCCCC(C(C)=O)C(=O)OC` (stereo not drawn), the GI50 in the experiment with SNB-78, in the experiment with XF498, with DLD-1, in the experiment on HOP-18, in the experiment with M19-MEL and in the experiment with KM-20L2 was > 100 µM (inactive) throughout.
`Cc1ccc(NC(=O)C2C3C=CC(O3)C2C(=O)O)cc1` (stereo not drawn): the GI50 is > 100 µM (inactive) in the experiment with SNB-78; 71.9 µM (inactive) with XF498; 66.8 µM (inactive) in the experiment with DMS-114; > 100 µM (inactive) in the experiment on DLD-1; > 100 µM (inactive) in the experiment on HOP-18; > 100 µM (inactive) in the experiment with M19-MEL. Besides, the GI50 in the experiment on DMS-273 and in the experiment with KM-20L2 was > 100 µM (inactive) in each case.
Turning to `Nc1nc2ncn(CCO)c2c(=S)[nH]1`, the GI50 in the experiment with SNB-78, with DMS-114, in the experiment with DLD-1, with HOP-18, with M19-MEL and with DMS-273 was > 100 µM (inactive) each time. Further, the GI50 in the experiment with KM-20L2 was > 100 µM (inactive).
Consider `c1ccc([B-]23Oc4ccccc4[NH+]2c2ccccc2O3)cc1` (stereo not drawn), for which the GI50 in the experiment with SNB-78 was 77.4 µM (inactive); in the experiment with DMS-114, 24.9 µM (inactive); in the experiment with DLD-1, 46 µM (inactive); with HOP-18, > 100 µM (inactive); in the experiment on DMS-273 it was 54.6 µM (inactive).
As for `O=[N+]([O-])c1c(/C=N/c2ccccc2)oc(-c2ccc3c(c2)OCO3)c1-c1ccc2c(c1)OCO2`, the GI50 in the experiment on SNB-78 is > 100 µM (inactive); in the experiment on XF498, > 100 µM (inactive); in the experiment with DMS-114, 60.7 µM (inactive); in the experiment with DLD-1, > 100 µM (inactive); in the experiment with RXF 631, > 100 µM (inactive); in the experiment with M19-MEL, > 100 µM (inactive). In addition, the GI50 in the experiment on DMS-273 and in the experiment with KM-20L2 was > 100 µM (inactive) each time.
As for `O=C1[C@@H](c2ccc(Cl)cc2)[C@H]2CC=C[C@H]2N1O`, the GI50 was > 100 µM (inactive) in the experiment with SNB-78; > 100 µM (inactive) in the experiment with XF498; 41.5 µM (inactive) with DMS-114; > 100 µM (inactive) in the experiment with DLD-1; 39.7 µM (inactive) in the experiment with RXF 631; > 100 µM (inactive) in the experiment with M19-MEL. In addition, the GI50 with DMS-273 was > 100 µM (inactive).
For `Cc1ccc(C2=C(c3ccccc3)C(O)(c3ccccc3)C(c3ccccc3)=C2c2ccc(C)cc2)cc1`, the GI50 in the experiment with SNB-78 is > 100 µM (inactive); with XF498 it was 44.5 µM (inactive); in the experiment with DLD-1, > 100 µM (inactive); in the experiment with RXF 631, > 100 µM (inactive); with HOP-18 it was > 100 µM (inactive); with M19-MEL, > 100 µM (inactive). The GI50 with KM-20L2 was > 100 µM (inactive).
Regarding `C=C(C)[C@H](O)C(O)CC(C)[C@@H]1CCC23CC12CCC1[C@@]2(C)CCC(OC(C)=O)C(C)(C)C2CC(OC2OC(COC(C)=O)C(O)C(O)C2O)[C@]13C` (stereo partly drawn), the GI50 with SNB-78 is 7.16 µM (inactive); with DMS-114, 4.91 µM (inactive); with DLD-1 it was 5.52 µM (inactive); in the experiment on RXF 631 it was 6.12 µM (inactive); in the experiment on HOP-18, 8.85 µM (inactive); with M19-MEL, 5.24 µM (inactive). Besides, the GI50 was 5.66 µM (inactive) in the experiment on DMS-273 and 4.53 µM (inactive) in the experiment with KM-20L2.
Take `COc1cc(C2c3cc4c(cc3[C@@H](Nc3ccc(N)cc3)C3COC(=O)[C@H]23)OCO4)cc(OC)c1O` (stereo partly drawn): the GI50 in the experiment with SNB-78 was 9.16 µM (inactive); in the experiment on XF498 it was 1.45 µM (inactive); in the experiment on DMS-114, 1.59 µM (inactive); with DLD-1 it was 4.57 µM (inactive); with HOP-18, 9.89 µM (inactive); in the experiment with M19-MEL, 2.91 µM (inactive). Moreover, the GI50 in the experiment with DMS-273 was 0.361 µM (active); in the experiment with KM-20L2, 1.94 µM (inactive).
With `N=C1OC(c2cccc(Cl)c2)C(NNS(=O)(=O)c2ccccc2)=C1O` (stereo not drawn), the GI50 in the experiment with SNB-78 is 27.4 µM (inactive); in the experiment with DMS-114, 17.9 µM (inactive); in the experiment with DLD-1, 15 µM (inactive); in the experiment with HOP-18 it was > 100 µM (inactive); in the experiment with M19-MEL it was 24 µM (inactive); with DMS-273 it was 32.4 µM (inactive). Moreover, the GI50 in the experiment with KM-20L2 was 39.4 µM (inactive).
For the compound `COC(=O)c1cc2c(nc1C)-c1ccccc1OS2(=O)=O`, the GI50 is 82.8 µM (inactive) in the experiment with SNB-78; 56.6 µM (inactive) with XF498; > 100 µM (inactive) in the experiment on DMS-114; > 100 µM (inactive) in the experiment with DLD-1; > 100 µM (inactive) in the experiment on RXF 631; > 100 µM (inactive) with M19-MEL. In addition, the GI50 in the experiment on DMS-273 and with KM-20L2 was > 100 µM (inactive) throughout.
In the case of `O=C(O)COc1ccc(C(=O)/C(SS/C(C(=O)c2ccc(OCC(=O)O)c(Cl)c2Cl)=C2\C=C(c3ccc(Cl)cc3)SS2)=C2/C=C(c3ccc(Cl)cc3)SS2)c(Cl)c1Cl`, the GI50 with SNB-78 was 6.7 µM (inactive); in the experiment with DLD-1 it was 11.6 µM (inactive); in the experiment with RXF 631 it was 12.1 µM (inactive); in the experiment on HOP-18, 7.73 µM (inactive); in the experiment with M19-MEL, 7.74 µM (inactive); with DMS-273 it was 18.1 µM (inactive). Also, the GI50 in the experiment with KM-20L2 was 25.1 µM (inactive).

Values taken from ChEMBL document CHEMBL1201862, “PubChem BioAssay data set” (2004).
